Test results from patent publication US7226923B2, “Phthalazinone derivatives” (Hoffman-La Roche Inc., priority 2004, dated 2007).
Values belong to the compound of their own block, whether it stands above or below them.

What was measured:
Aurora A = molecular target: T1, Aurora A (Homo sapiens, UniProt O14965); experiment: IC50 determination for inhibitors of Aurora A (96 MTP-ELISA); format: biochemical; conditions: His4-tagged full-length Aurora A 250 ng/ml, PKB-GSK2 200 nM, ATP 4 μM, 90 min at room temperature, read-out: IC50 Aurora A kinase inhibition
T1 construct: C-terminally Histidine4 (His4)-tagged Aurora A full-length protein
T1 sequence (O14965 1-403): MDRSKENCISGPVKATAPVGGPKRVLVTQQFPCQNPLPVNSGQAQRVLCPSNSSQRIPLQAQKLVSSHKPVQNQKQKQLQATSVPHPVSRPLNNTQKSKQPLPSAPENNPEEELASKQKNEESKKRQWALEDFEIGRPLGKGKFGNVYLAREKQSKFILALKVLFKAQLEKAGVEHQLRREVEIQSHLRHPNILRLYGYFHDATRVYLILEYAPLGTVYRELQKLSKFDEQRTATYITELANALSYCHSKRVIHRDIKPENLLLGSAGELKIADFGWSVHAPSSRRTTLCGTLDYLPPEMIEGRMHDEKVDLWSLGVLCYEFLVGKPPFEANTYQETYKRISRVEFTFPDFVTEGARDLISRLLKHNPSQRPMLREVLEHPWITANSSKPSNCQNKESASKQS
Experimental: IC50 Determination for Inhibitors of Aurora A
• Aurora A is a serine threonine kinase involved in spindle assembly and chromosome segregation.
The assay is a typically ELISA-type assay where biotinylated substrate (PKB-GSK2) is phosphorylated. Phosphorylation is detected by peroxidase (POD) labelled polyclonal antibody (PAK<M-Ig>S-IgG-POD) and phosphopeptide monoclonal antibody (Mab) (MAK<P-GSK>M-27E5-IgG). The assay is validated for IC50-determination.
Method • This assay is performed in 96-well format for IC50 determination with 5 samples (each with 8 concentrations by twofold testing), 100 μl incubation volume and the following plate layout: […]

HCT 116 cells = experiment: CellTiter-Glo assay in HCT 116 cells; format: cell-based, human; conditions: 5 days incubation, 30 μM to 0.0015 μM
From the text: CellTiter-Glo™ Assay in HCT 116 Cells
The CellTiter-Glo™ Luminescent Cell Viability Assay (Promega) is a homogeneous method of determining the number of viable cells in culture based on quantitation of the ATP present, which signals the presence of metabolically active cells.
HCT 116 cells (human colon carcinoma, ATCC-No. CCl-247) were cultivated in RPMI 1640 medium with GlutaMAX™ I (Invitrogen, Cat-No. 61870-010), 2.5% Fetal Calf Serum (FCS, Sigma Cat-No. F4135 (FBS)); 100 Units/ml penicillin/100 μg/ml streptomycin (=Pen/Strep from Invitrogen Cat. No. 15140). For the assay the cells were seeded in 384 well plates, 1000 cells per well, in the same medium. The next day the test compounds were added in various concentrations ranging from 30 μM to 0.0015 μM (10 concentrations, 1:3 diluted). After 5 days the CellTiter-Glo™ assay was done according to the instructions of the manufacturer (CellTiter-Glo™ Luminescent Cell Viability Assay, from Promega). In brief: the cell-plate was equilibrated to room temperature for approximately 30 minutes and than the CellTiter-Glo™ reagent was added. The contents were carefully mixed for 15 minutes to induce cell lysis. After 45 minutes the luminescent signal was measured in Victor 2, (scanning multiwell spectrophotometer, Wallac).
1st. Day: • Medium: RPMI 1640 with GlutaMAX™ I (Invitrogen, Cat-Nr. 61870), 5% FCS (Sigma Cat.-No. F4135), Pen/Strep (Invitrogen, Cat No. 15140). • HCT116 (ATCC-No. CCl-247): 1000 cells in 60 μl per well of 384 well plate (Greiner 781098, μClear-plate white) • After seeding incubate plates 24 h at 37° C., 5% CO2
2nd. Day: Induction (Treatment with Compounds, 10 Concentrations):
In order to achieve a final concentration of 30 μM as highest concentration 3.5 μl of 10 mM compound stock solution were added directly to 163 μl media. Then step e) of the dilution procedure described below, was followed.

Structure (SMILES): Cc1cc(Nc2nn(Cc3ccc(N)cc3)c(=O)c3ccccc23)n[nH]1 [Example C-1, 2-(4-Aminobenzyl)-4-(5-methyl-1H-pyrazol-3-ylamino)-2H-phthalazin-1-one]
IC50 (Aurora A): 1 to 100 nM | IC50 (HCT 116 cells; Homo sapiens, HCT-116, 120 h): 100 to 10000 nM

Structure (SMILES): Cc1cc(Nc2nn(-c3ccc(N4CCCCC4)cc3)c(=O)c3ccccc23)[nH]n1 [Example V-1, 4-(5-Methyl-2H-pyrazol-3-ylamino)-2-(4-piperidin-1-yl-phenyl)-2H-phthalazin-1-one]
IC50 (Aurora A): 1 to 100 nM | IC50 (HCT 116 cells; Homo sapiens, HCT-116, 120 h): 100 to 10000 nM

Structure (SMILES): COc1ccc2c(=O)n(C(C)C)nc(Nc3cc(C)[nH]n3)c2c1 [Example G-9, 2-Isopropyl-6-methoxy-4-(5-methyl-1H-pyrazol-3-ylamino)-2H-phthalazin-1-one]
IC50 (Aurora A): 1 to 100 nM | IC50 (HCT 116 cells; Homo sapiens, HCT-116, 120 h): 100 to 10000 nM

Structure (SMILES): Cc1cc(Nc2nn(C(C)C)c(=O)c3cc(N(C)Cc4ccccn4)ccc23)n[nH]1 [Example I-4, 2-Isopropyl-4-(5-methyl-1H-pyrazol-3-ylamino)-7-(methyl-pyridin-2-ylmethyl-amino)-2H-phthalazin-1-one]
IC50 (Aurora A): 1 to 100 nM | IC50 (HCT 116 cells; Homo sapiens, HCT-116, 120 h): 100 to 10000 nM

Structure (SMILES): Cc1cc(Nc2nn(-c3ccc(N)cc3)c(=O)c3ccccc23)n[nH]1 [Example C-2, 2-(4-Amino-phenyl)-4-(5-methyl-1H-pyrazol-3-ylamino)-2H-phthalazin-1-one]
IC50 (HCT 116 cells; Homo sapiens, HCT-116, 120 h): 100 to 10000 nM

Structure (SMILES): CCN(C(C)=O)c1ccc(-n2nc(Nc3cc(C)[nH]n3)c3ccccc3c2=O)cc1 [Example Y-1, N-Ethyl-N-{4-[4-(5-methyl-1H-pyrazol-3-ylamino)-1-oxo-1H-phthalazin-2-yl]-phenyl}-acetamide]
IC50 (HCT 116 cells; Homo sapiens, HCT-116, 120 h): 100 to 10000 nM

Structure (SMILES): Cc1cc(Nc2nn(C(C)C)c(=O)c3cc(C(=O)NC(C)C)ccc23)n[nH]1 [Example M-5, 3-Isopropyl-1-(5-methyl-1H-pyrazol-3-ylamino)-4-oxo-3,4-dihydro-phthalazine-6-carboxylic acid isopropylamide]
IC50 (HCT 116 cells; Homo sapiens, HCT-116, 120 h): 100 to 10000 nM

Structure (SMILES): Cc1cc(Nc2nn(C(C)C)c(=O)c3ccc(F)cc23)n[nH]1 [Example E-3, 6-Fluoro-2-isopropyl-4-(5-methyl-1H-pyrazol-3-ylamino)-2H-phthalazin-1-one]
IC50 (HCT 116 cells; Homo sapiens, HCT-116, 120 h): 100 to 10000 nM

Structure (SMILES): Cc1cc(Nc2nn(-c3ccccc3)c(=O)c3ccccc23)[nH]n1 [Example A-1, 4-(5-Methyl-2H-pyrazole-3-ylamino)-phenyl-2H-phthalazin-1-one]
IC50 (HCT 116 cells): 1660 nM

Structure (SMILES): Cc1cc(Nc2nn(-c3ccc([S+]([O-])c4ccccc4)cc3)c(=O)c3ccccc23)n[nH]1 (centres unmarked) [Example ZA-2, 2-(4-Benzenesulfinyl-phenyl)-4-(5-methyl-1H-pyrazol-3-ylamino)-2H-phthalazin-1-one]
IC50 (HCT 116 cells; Homo sapiens, HCT-116, 120 h): 100 to 10000 nM

Structure (SMILES): Cc1cc(Nc2nn(CC3CC3)c(=O)c3ccccc23)n[nH]1 [Example E-11, 2-Cyclopropylmethyl-4-(5-methyl-1H-pyrazol-3-ylamino)-2H-phthalazin-1-one]
IC50 (HCT 116 cells; Homo sapiens, HCT-116, 120 h): 100 to 10000 nM

Structure (SMILES): CSc1ccc(Cn2nc(Nc3cc(C)[nH]n3)c3ccccc3c2=O)cc1 [Example E-12, 4-(5-Methyl-1H-pyrazol-3-ylamino)-2-(4-methylsulfanyl-benzyl)-2H-phthalazin-1-one]
IC50 (HCT 116 cells; Homo sapiens, HCT-116, 120 h): 100 to 10000 nM

Structure (SMILES): Cc1cc(Nc2nn(-c3ccc(Cl)cc3)c(=O)c3ccccc23)n[nH]1 [Example B-1, 2-(4-Chloro-phenyl)-4-(5-methyl-1H-pyrazol-3-ylamino)-2H-phthalazin-1-one]
IC50 (HCT 116 cells; Homo sapiens, HCT-116, 120 h): 100 to 10000 nM

Structure (SMILES): CCOC(=O)N(C)c1ccc(-n2nc(Nc3cc(C)[nH]n3)c3ccccc3c2=O)cc1 [Example Y-3, Methyl-{4-[4-(5-methyl-1H-pyrazol-3-ylamino)-1-oxo-1H-phthalazin-2-yl]-phenyl}-carbamic acid ethyl ester]
IC50 (HCT 116 cells; Homo sapiens, HCT-116, 120 h): 100 to 10000 nM

Structure (SMILES): CCOC(=O)N(C)c1ccc2c(Nc3cc(C)[nH]n3)nn(C(C)C)c(=O)c2c1 [Example I-7, [3-Isopropyl-1-(5-methyl-1H-pyrazol-3-ylamino)-4-oxo-3,4-dihydro-phthalazin-6-yl]-methyl-carbamic acid ethyl ester]
IC50 (HCT 116 cells; Homo sapiens, HCT-116, 120 h): 100 to 10000 nM

Structure (SMILES): Cc1cc(Nc2nn(-c3ccc(C(C)(C)C)cc3)c(=O)c3cc(N)ccc23)[nH]n1 [Example ZB-2, 7-Amino-2-(4-tert-butyl-phenyl)-4-(5-methyl-2H-pyrazol-3-ylamino)-2H-phthalazin-1-one]
IC50 (HCT 116 cells; Homo sapiens, HCT-116, 120 h): 100 to 10000 nM

More lines, now with the values ahead:

IC50 (Aurora A): 7 nM | IC50 (HCT 116 cells; Homo sapiens, HCT-116, 120 h): 100 to 10000 nM
Structure (SMILES): Cc1cc(Nc2nn(C(C)C)c(=O)c3cc(OCCN4CCOCC4)ccc23)n[nH]1 [Example G-5, 2-Isopropyl-4-(5-methyl-1H-pyrazol-3-ylamino)-7-(2-morpholin-4-yl-ethoxy)-2H-phthalazin-1-one]

IC50 (Aurora A): 100 to 1000 nM | IC50 (HCT 116 cells; Homo sapiens, HCT-116, 120 h): 100 to 10000 nM
Structure (SMILES): Cc1cc(Nc2nn(-c3ccc(NC(=O)c4ccccc4)cc3)c(=O)c3ccccc23)n[nH]1 [Example T-4, N-{4-[4-(5-Methyl-1H-pyrazol-3-ylamino)-1-oxo-1H-phthalazin-2-yl]-phenyl}-benzamide]

IC50 (HCT 116 cells; Homo sapiens, HCT-116, 120 h): 10000 to 100000 nM
Structure (SMILES): Cc1cc(Nc2nn(-c3ccc(-c4ccccc4)cc3)c(=O)c3ccccc23)n[nH]1 [Example Q-1, 2-Biphenyl-4-yl-4-(5-methyl-1H-pyrazol-3-ylamino)-2H-phthalazin-1-one]

IC50 (HCT 116 cells; Homo sapiens, HCT-116, 120 h): 100 to 10000 nM
Structure (SMILES): Cc1cc(Nc2nn(CC(C)C)c(=O)c3ccccc23)n[nH]1 [Example A-4, 2-Isobutyl-4-(5-methyl-1H-pyrazol-3-ylamino)-2H-phthalazin-1-one]

IC50 (HCT 116 cells; Homo sapiens, HCT-116, 120 h): 100 to 10000 nM
Structure (SMILES): C=CCn1nc(Nc2cc(C)[nH]n2)c2ccccc2c1=O [Example E-10, 2-Allyl-4-(5-methyl-1H-pyrazol-3-ylamino)-2H-phthalazin-1-one]

IC50 (HCT 116 cells; Homo sapiens, HCT-116, 120 h): 100 to 10000 nM
Structure (SMILES): Cc1cc(Nc2nn(C(C)C)c(=O)c3cc(NS(C)(=O)=O)ccc23)n[nH]1 [Example J-2, N-[3-Isopropyl-1-(5-methyl-1H-pyrazol-3-ylamino)-4-oxo-3,4-dihydro-phthalazin-6-yl]-methanesulfonamide]

IC50 (HCT 116 cells; Homo sapiens, HCT-116, 120 h): 100 to 10000 nM
Structure (SMILES): Cc1cc(Nc2nn(C(C)C)c(=O)c3cc(SCCN4CCOCC4)ccc23)n[nH]1 [Example H-3, 2-Isopropyl-4-(5-methyl-1H-pyrazol-3-ylamino)-7-(2-morpholin-4-yl-ethylsulfanyl)-2H-phthalazin-1-one]

IC50 (HCT 116 cells; Homo sapiens, HCT-116, 120 h): 100 to 10000 nM
Structure (SMILES): Cc1cc(Nc2nn(-c3ccc(N4CCCC4)cc3)c(=O)c3ccccc23)n[nH]1 [Example U-3, 4-(5-Methyl-1H-pyrazol-3-ylamino)-2-(4-pyrrolidin-1-yl-phenyl)-2H-phthalazin-1-one]

IC50 (HCT 116 cells; Homo sapiens, HCT-116, 120 h): 100 to 10000 nM
Structure (SMILES): COCC(=O)Nc1ccc(-n2nc(Nc3cc(C)[nH]n3)c3ccccc3c2=O)cc1 [Example T-2, 2-Methoxy-N-{4-[4-(5-methyl-1H-pyrazol-3-ylamino)-1-oxo-1H-phthalazin-2-yl]-phenyl}-acetamide]

IC50 (HCT 116 cells; Homo sapiens, HCT-116, 120 h): 100 to 10000 nM
Structure (SMILES): Cc1cc(Nc2nn(Cc3ccc(F)c(F)c3)c(=O)c3ccccc23)n[nH]1 [Example A-15, 2-(3,4-Difluoro-benzyl)-4-(5-methyl-1H-pyrazol-3-ylamino)-2H-phthalazin-1-one]

IC50 (HCT 116 cells; Homo sapiens, HCT-116, 120 h): 100 to 10000 nM
Structure (SMILES): Cc1cc(Nc2nn(-c3ccc(C(C)(C)C)cc3)c(=O)c3ccc(Br)cc23)[nH]n1 [Example ZB-6, 6-Bromo-2-(4-tert-butyl-phenyl)-4-(5-methyl-2H-pyrazol-3-ylamino)-2H-phthalazin-1-one]

IC50 (HCT 116 cells; Homo sapiens, HCT-116, 120 h): 100 to 10000 nM
Structure (SMILES): Cc1cc(Nc2nn(C(C)C)c(=O)c3ccc(N4CCOCC4)cc23)n[nH]1 [Example F-2, 2-Isopropyl-4-(5-methyl-1H-pyrazol-3-ylamino)-6-morpholino-2H-phthalazin-1-one]

IC50 (HCT 116 cells; Homo sapiens, HCT-116, 120 h): 100 to 10000 nM
Structure (SMILES): Cc1cc(Nc2nn(Cc3cc(F)ccc3F)c(=O)c3ccccc23)n[nH]1 [Example A-13, 2-(2,5-Difluoro-benzyl)-4-(5-methyl-1H-pyrazol-3-ylamino)-2H-phthalazin-1-one]
